Measured values: ChEMBL document CHEMBL5678810

Assays:
[1] = target: T1, Serine/threonine-protein kinase TBK1 (Homo sapiens) (UniProt Q9UHD2); assay: Inhibition of T7 bacteriophage fused human TBK1 at 10 uM by KINOMEscan analysis relative to control
T1 sequence (whole entry): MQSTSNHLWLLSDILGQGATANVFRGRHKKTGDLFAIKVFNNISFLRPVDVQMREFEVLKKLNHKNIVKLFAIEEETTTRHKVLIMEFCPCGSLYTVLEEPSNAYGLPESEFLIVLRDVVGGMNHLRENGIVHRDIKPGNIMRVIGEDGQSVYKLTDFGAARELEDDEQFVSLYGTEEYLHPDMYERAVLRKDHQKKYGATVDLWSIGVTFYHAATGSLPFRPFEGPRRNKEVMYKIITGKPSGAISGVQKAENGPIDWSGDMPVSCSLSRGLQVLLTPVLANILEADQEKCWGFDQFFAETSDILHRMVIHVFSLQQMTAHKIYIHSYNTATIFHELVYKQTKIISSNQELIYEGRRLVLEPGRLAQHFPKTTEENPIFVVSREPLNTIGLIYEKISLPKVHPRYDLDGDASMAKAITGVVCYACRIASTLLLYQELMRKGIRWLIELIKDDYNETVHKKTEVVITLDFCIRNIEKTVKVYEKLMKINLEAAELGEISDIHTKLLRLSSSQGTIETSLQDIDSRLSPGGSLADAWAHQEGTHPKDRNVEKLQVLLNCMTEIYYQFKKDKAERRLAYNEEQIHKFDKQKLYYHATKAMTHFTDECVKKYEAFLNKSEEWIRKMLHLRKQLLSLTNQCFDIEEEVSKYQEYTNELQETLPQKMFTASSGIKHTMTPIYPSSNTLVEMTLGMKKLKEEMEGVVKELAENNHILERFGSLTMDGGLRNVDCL

[2] = target: T2, Serine/threonine-protein kinase ULK3 (Homo sapiens) (UniProt Q6PHR2); assay: Inhibition of T7 bacteriophage fused human ULK3 at 10 uM by KINOMEscan analysis relative to control
T2 sequence (whole entry): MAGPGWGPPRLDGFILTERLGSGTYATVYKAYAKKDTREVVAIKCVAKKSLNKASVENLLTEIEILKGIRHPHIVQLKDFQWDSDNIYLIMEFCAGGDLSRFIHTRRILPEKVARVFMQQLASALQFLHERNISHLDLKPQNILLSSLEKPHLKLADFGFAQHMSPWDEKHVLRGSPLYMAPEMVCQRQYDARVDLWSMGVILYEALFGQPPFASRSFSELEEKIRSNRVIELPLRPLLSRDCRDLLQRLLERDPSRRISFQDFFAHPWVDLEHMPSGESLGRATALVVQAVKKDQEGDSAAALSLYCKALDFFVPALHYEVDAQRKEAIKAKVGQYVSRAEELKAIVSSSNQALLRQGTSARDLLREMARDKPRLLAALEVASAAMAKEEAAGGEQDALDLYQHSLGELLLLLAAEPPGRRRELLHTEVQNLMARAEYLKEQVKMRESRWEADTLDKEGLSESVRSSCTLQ

[3] = target: Serine/threonine-protein kinase 32B (Homo sapiens) (UniProt Q9NY57); assay: Inhibition of T7 bacteriophage fused human YANK2 at 10 uM by KINOMEscan analysis relative to control
[4] = target: T3, Mitogen-activated protein kinase kinase kinase 19 (Homo sapiens) (UniProt Q56UN5); assay: Inhibition of T7 bacteriophage fused human YSK4 at 10 uM by KINOMEscan analysis relative to control
T3 sequence (whole entry): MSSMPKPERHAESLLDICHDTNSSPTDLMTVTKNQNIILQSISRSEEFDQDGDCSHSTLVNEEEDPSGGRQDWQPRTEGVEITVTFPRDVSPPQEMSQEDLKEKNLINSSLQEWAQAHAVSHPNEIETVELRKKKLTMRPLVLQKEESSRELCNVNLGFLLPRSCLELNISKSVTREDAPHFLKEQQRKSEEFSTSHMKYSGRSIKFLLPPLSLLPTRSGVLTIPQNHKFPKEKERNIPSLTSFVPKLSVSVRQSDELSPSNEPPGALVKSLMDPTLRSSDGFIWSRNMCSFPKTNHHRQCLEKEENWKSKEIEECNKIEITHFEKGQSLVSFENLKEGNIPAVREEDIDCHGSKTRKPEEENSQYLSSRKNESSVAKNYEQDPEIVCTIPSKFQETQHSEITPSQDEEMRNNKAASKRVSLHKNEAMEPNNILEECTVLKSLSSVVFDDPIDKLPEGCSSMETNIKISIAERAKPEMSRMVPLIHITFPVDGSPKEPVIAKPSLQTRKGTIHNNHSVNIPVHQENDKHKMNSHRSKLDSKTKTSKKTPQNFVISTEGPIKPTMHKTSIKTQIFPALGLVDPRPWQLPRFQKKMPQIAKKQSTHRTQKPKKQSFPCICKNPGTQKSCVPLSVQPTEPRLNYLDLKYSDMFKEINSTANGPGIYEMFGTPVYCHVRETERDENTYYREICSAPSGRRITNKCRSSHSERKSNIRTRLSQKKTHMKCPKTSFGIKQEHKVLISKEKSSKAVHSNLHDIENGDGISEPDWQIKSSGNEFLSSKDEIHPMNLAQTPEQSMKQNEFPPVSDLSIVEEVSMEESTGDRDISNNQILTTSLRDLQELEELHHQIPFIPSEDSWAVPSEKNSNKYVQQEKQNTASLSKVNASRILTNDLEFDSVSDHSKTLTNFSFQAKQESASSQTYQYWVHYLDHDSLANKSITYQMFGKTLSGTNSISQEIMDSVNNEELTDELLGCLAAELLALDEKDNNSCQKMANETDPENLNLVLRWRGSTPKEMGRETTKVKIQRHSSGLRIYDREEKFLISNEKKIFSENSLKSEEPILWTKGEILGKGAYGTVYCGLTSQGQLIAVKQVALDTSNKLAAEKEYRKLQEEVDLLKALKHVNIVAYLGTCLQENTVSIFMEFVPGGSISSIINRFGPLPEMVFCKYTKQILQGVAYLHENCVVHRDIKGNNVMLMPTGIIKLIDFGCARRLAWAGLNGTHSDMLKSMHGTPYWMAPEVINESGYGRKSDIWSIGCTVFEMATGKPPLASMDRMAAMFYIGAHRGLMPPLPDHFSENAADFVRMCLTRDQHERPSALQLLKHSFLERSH

Serine/threonine-protein kinase 32B (Homo sapiens), sequence (Q9NY57 whole entry, the tested form may be a part): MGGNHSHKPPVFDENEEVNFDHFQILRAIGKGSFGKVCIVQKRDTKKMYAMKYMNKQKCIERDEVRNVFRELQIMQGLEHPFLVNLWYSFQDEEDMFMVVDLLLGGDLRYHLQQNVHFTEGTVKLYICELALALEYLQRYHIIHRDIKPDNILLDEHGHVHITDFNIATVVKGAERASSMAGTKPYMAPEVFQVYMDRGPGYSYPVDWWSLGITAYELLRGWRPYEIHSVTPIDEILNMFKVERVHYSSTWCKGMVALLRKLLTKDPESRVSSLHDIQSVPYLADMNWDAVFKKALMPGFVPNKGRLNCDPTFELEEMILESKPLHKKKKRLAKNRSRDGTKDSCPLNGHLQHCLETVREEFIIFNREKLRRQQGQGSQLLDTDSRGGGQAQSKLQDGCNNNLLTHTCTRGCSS

SMILES | inhibition [1] [%] | inhibition [2] [%] | inhibition [3] [%] | inhibition [4] [%]
CCOc1cc(C(=O)N2CCC(N3CCN(C)CC3)CC2)ccc1Nc1ncc2c(n1)N(C1CCCC1)c1ccccc1C(=O)N2C | 100 | 100 | 100 | 100
COc1cc(N2CCC(N3CCN(C)CC3)CC2)ccc1Nc1ncc2c(n1)N(C)c1ccccc1C(=O)N2C | 97 | 100 | 100 | 99
COc1cc(C(=O)N2CCC(N3CCN(C)CC3)CC2)ccc1Nc1ncc2c(n1)N(C1CCCC1)c1ccccc1C(=O)N2C | 100 | 100 | 100 | 100
